In patent publication US5175180A, “N-substituted N-(alpha-triazolyl-toluyl)pyrrole compounds and use for treatment of circulatory disorders” (G. D. Searle & Co., priority 1990, dated 1992):
Read-outs that look alike come from different tables or passages of the source.

Experiments:
[1] = result in words, prior art; cited from earlier work
angiotensin II = settings: result in words, prior art; cited from earlier work
[2] = target: smooth muscle angiotensin II receptor; assay: Assay A: Angiotensin II Binding Activity (displacement of 125I-angiotensin II, rat uterine membrane preparation); settings: 50% displacement of specifically bound 125I-AII; rat uterine membranes, 25° C., 60 min, pH 7.5
Protocol: Compounds of the invention were tested for ability to bind to the smooth muscle angiotensin II receptor using a rat uterine membrane preparation. […] Other chemicals were obtained from Sigma Chemical Co. This assay was carried out according to the method of Douglas et al [Endocrinology, 106, 120-124 (1980)]. Rat uterine membranes were prepared from fresh tissue. All procedures were carried out at 4° C. Uteri were stripped of fat and homogenized in phosphate-buffered saline at pH 7.4 containing 5 mM EDTA. The homogenate was centrifuged at 1500×g for 20 min., and the supernatant was recentrifuged at 100,000×g for 60 min. The pellet was resuspended in buffer consisting of 2 mM EDTA and 50 mM Tris-HCl (pH 7.5) to a final protein concentration of 4 mg/ml. […] The reaction was initiated by the addition of membrane protein and the mixture was incubated at 25° C. for 60 min. The incubation was terminated with ice-cold 50 mM Tris-HCl (pH 7.5) and the mixture was filtered to separate membrane-bound labelled peptide from the free ligand. The incubation tube and filter were washed with ice-cold buffer. Filters were assayed for radioactivity in a Micromedic gamma counter. […] Specific binding was calculated as total binding minus nonspecific binding. […] Binding data were analyzed by a nonlinear least-squares curve fitting program.

[3] = target: T1, rabbit aortic rings (angiotensin II response) (Oryctolagus cuniculus, UniProt P34976); assay: Assay B: In Vitro Vascular Smooth Muscle Response for AII (aortic rings); assay type: cell-based, rabbit (male New Zealand white)
T1 construct: The thoracic aorta was removed, cleaned of adherent fat and connective tissue; from tissue; host or cells: thoracic aorta rings without endothelium, male New Zealand white rabbit
T1 sequence (P34976 1-359): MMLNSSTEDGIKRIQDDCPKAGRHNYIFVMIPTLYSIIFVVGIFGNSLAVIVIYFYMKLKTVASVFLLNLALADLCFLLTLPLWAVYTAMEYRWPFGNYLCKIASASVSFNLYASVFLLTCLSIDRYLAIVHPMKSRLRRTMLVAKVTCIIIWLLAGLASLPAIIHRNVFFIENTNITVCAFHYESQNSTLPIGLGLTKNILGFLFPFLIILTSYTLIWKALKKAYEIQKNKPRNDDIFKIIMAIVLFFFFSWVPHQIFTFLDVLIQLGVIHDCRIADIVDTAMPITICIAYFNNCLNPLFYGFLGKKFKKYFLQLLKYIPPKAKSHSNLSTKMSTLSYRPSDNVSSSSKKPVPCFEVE
Protocol: The compounds of the invention were tested for antagonist activity in rabbit aortic rings. Male New Zealand white rabbits (2-2.5 kg) were sacrificed using an overdose of pentobarbital and exsanguinated via the carotid arteries. The thoracic aorta was removed, cleaned of adherent fat and connective tissue and then cut into 3-mm ring segments. The endothelium was removed from the rings by gently sliding a rolled-up piece of filter paper into the vessel lumen. The rings were then mounted in a water-jacketed tissue bath, maintained at 37° C., between moveable and fixed ends of a stainless steel wire with the moveable end attached to an FTO3 Grass transducer coupled to a Model 7D Grass Polygraph for recording isometric force responses. The bath was filled with 20 ml of oxygenated (95% oxygen/5% carbon dioxide) Krebs solution of the following composition (mM): 130 NaCl, 15 NaHCO3, […], 1.2 NaH2 PO4, 1.2 MgSO4, 2.5 CaCl2, and 11.4 glucose. The preparations were equilibrated for one hour before approximately one gram of passive tension was placed on the rings. Angiotensin II concentration-response curves were then recorded (3×10^-10 to 1×10^-5 M). […] The effectiveness of the test compound was expressed in terms of pA2 values and were calculated according to H. O. Schild [Br. J. Pharmacol. Chemother., 2, 189-206 (1947)]. […] Each test antagonist was evaluated in aorta rings from two rabbits.

[4] = system: angiotensin II pressor response; assay: Assay C: In Vivo Intraduodenal Pressor Assay Response for AII Antagonists; set-up: species or system rat (male Sprague-Dawley); settings: 30 mg/kg i.d., average of two rats
Protocol: Angiotensin II injections were then given 5, 10, 20, 30, 45, 60, 75, 90, and 120 minutes after administration of the test compound and response of arterial pressure was monitored. […] Duration of action of a test compound was defined as the time from peak percent inhibition to 50% of peak.

| Compound | angiotensin II antagonist activity (angiotensin II) | IC50 [2] [nM] | also measured |
| --- | --- | --- | --- |
| Cc1ccc(C(c2ccc(-n3cccc3)cc2)n2cncn2)cc1 (stereo not shown) [1-[(4-methylphenyl)[4-(1H-pyrrol-1-yl)phenyl]methyl]-1H-1,2,4-triazole] |  |  | antibacterial and antifungal properties [1]: antibacterial and antifungal properties |
| CCCCc1nc(Cl)c(CC(=O)O)n1Cc1ccccc1Cl [2-n-butyl-4-chloro-1-(2-chlorobenzyl)imidazole-5-acetic acid] | specific competitive angiotensin II antagonist activity |  |  |
| CCCCc1nc(Cl)c(CC(=O)O)n1Cc1ccccc1[N+](=O)[O-] [(2-butyl-4-chloro-1-(2-nitrobenzyl)imidazole-5-acetic acid] | specific competitive angiotensin II antagonist activity |  |  |
| CCCCc1nc(CCCC)n(Cc2ccc(-n3c(Br)ccc3-c3nnn[nH]3)cc2)n1 [Example 3, 5-[1-[4-[(3,5-di-n-butyl-1H-1,2,4-triazol-1-yl)methyl]phenyl]-5-bromo-1H-pyrrol-2-yl]-1H-tetrazole] |  | 110 | Kb ([3]; rabbit aortic rings, 37° C., antagonist 5 min before AII challenge, two rabbits, Schild, read-out: pA2 (converted)): 9.55 nM |
| CCCCc1nc(CCCC)n(Cc2ccc(-n3c(Cl)cc(Cl)c3-c3nnn[nH]3)cc2)n1 [Example 5, 5-[1-[4-[(3,5-dibutyl-1H-1,2,4-triazol-1-yl)methyl]phenyl]-3,5-dichloro-1H-pyrrol-2-yl]-1H-tetrazole] |  | 52 | Kb [3]: 20 nM; Inhibition ([4]; percent inhibition of AII pressor response, AII 30 ng/kg i.v., ganglion-blocked anesthetized rats): 85%; Duration ([4]; time from peak percent inhibition to 50% of peak): 75 min |
| CNCC(=O)N[C@@H](CCCN=C(N)N)C(=O)N[C@H](C(=O)N[C@@H](Cc1ccc(O)cc1)C(=O)N[C@H](C(=O)N[C@@H](Cc1cnc[nH]1)C(=O)N1CCC[C@H]1C(=O)N[C@@H](C)C(=O)O)C(C)C)C(C)C [Saralasin] | significant residual antagonist activity |  |  |
